# How the values were obtained:
# [1] = Cmax in female cynomolgus monkey at 3 mg/kg,po by LC-MS/MS analysis; format: ADME, organism-based, Macaca fascicularis; design: dose 3 mg/kg, route po; conditions: in vivo
# [2] = Cmax in male cynomolgus monkey at 3 mg/kg,po by LC-MS/MS analysis; format: ADME, organism-based, Macaca fascicularis; design: dose 3 mg/kg, route po; conditions: in vivo
# [3] = AUClast in male cynomolgus monkey at 3 mg/kg,po by LC-MS/MS analysis; format: ADME, organism-based, Macaca fascicularis; design: dose 3 mg/kg, route po; conditions: in vivo
# [4] = Cmax in male Wistar Han rat at 10 mg/kg,po by LC-MS/MS analysis; format: ADME, organism-based; design: dose 10 mg/kg, route po; conditions: in vivo
# [5] = Clearance in cynomolgus monkey at 2 mg/kg,iv by LC-MS/MS analysis; format: ADME, organism-based, Macaca fascicularis; conditions: in vivo
# [6] = Tmax in male Wistar Han rat at 3 mg/kg,po by LC-MS/MS analysis; format: ADME, organism-based; conditions: in vivo
# [7] = Oral bioavailability in male cynomolgus monkey at 30 mg/kg by LC-MS/MS analysis; format: ADME, organism-based, Macaca fascicularis; conditions: in vivo
# [8] = AUC (0-infinity) in mouse liver at 3 mg/kg,po; format: ADME, organism-based; design: dose 3 mg/kg, route po
# Cytochrome P450 3A4 = Cytochrome P450 3A4 (Homo sapiens, UniProt P08684); experiment: Inhibition of CYP3A4 (unknown origin); format: ADME
# [9] = Volume of distribution at steady state in Wistar Han rat at 2 mg/kg,iv by LC-MS/MS analysis; format: ADME, organism-based; conditions: in vivo, read-out: Vdss
# [10] = Cmax in female Wistar Han rat at 3 mg/kg,po by LC-MS/MS analysis; format: ADME, organism-based; design: dose 3 mg/kg, route po; conditions: in vivo
# [11] = Half life in male cynomolgus monkey at 30 mg/kg,po by LC-MS/MS analysis; format: ADME, organism-based, Macaca fascicularis; conditions: in vivo
# [12] = Tmax in female Wistar Han rat at 10 mg/kg,po by LC-MS/MS analysis; format: ADME, organism-based; conditions: in vivo
# [13] = Oral bioavailability in male minipig at 30 mg/kg by LC-MS/MS analysis; format: ADME, organism-based, Sus scrofa domesticus; conditions: pig, in vivo
# [14] = Clearance in mouse plasma at 1 mg/kg,iv; format: ADME, organism-based
# [15] = Oral bioavailability in female cynomolgus monkey at 10 mg/kg by LC-MS/MS analysis; format: ADME, organism-based, Macaca fascicularis; conditions: in vivo
# [16] = Oral bioavailability in female cynomolgus monkey at 3 mg/kg by LC-MS/MS analysis; format: ADME, organism-based, Macaca fascicularis; conditions: in vivo
# [17] = Cmax in male cynomolgus monkey at 30 mg/kg,po by LC-MS/MS analysis; format: ADME, organism-based, Macaca fascicularis; design: dose 30 mg/kg, route po; conditions: in vivo
# [18] = AUClast in female minipig at 10 mg/kg,po by LC-MS/MS analysis; format: ADME, organism-based, Sus scrofa domesticus; design: dose 10 mg/kg, route po; conditions: pig, in vivo
# [19] = Tmax in female cynomolgus monkey at 3 mg/kg,po by LC-MS/MS analysis; format: ADME, organism-based, Macaca fascicularis; conditions: in vivo
# [20] = AUClast in Wistar Han rat at 2 mg/kg,iv by LC-MS/MS analysis; format: ADME, organism-based; design: dose 2 mg/kg, route iv; conditions: in vivo
# [21] = Cmax in female minipig at 3 mg/kg,po by LC-MS/MS analysis; format: ADME, organism-based, Sus scrofa domesticus; design: dose 3 mg/kg, route po; conditions: pig, in vivo
# [22] = Oral bioavailability in female minipig at 30 mg/kg by LC-MS/MS analysis; format: ADME, organism-based, Sus scrofa domesticus; conditions: pig, in vivo
# [23] = Tmax in female minipig at 10 mg/kg,po by LC-MS/MS analysis; format: ADME, organism-based, Sus scrofa domesticus; conditions: pig, in vivo
# [24] = Half life in male cynomolgus monkey at 10 mg/kg,po by LC-MS/MS analysis; format: ADME, organism-based, Macaca fascicularis; conditions: in vivo
# [25] = AUC (0-infinity) in mouse plasma at 1 mg/kg,iv; format: ADME, organism-based; design: dose 1 mg/kg, route iv; conditions: in vivo
# [26] = Cmax in male Wistar Han rat at 3 mg/kg,po by LC-MS/MS analysis; format: ADME, organism-based; design: dose 3 mg/kg, route po; conditions: in vivo
# [27] = Oral bioavailability in male cynomolgus monkey at 3 mg/kg by LC-MS/MS analysis; format: ADME, organism-based, Macaca fascicularis; conditions: in vivo
# [28] = Clearance in human hepatocyte at 2 uM measured upto 120 mins by LC-MS/MS analysis; format: ADME, cell-based; conditions: hepatocytes
# [29] = Oral bioavailability in rat plasma at 3 mg/kg; format: ADME, organism-based; conditions: plasma
# [30] = Tmax in male cynomolgus monkey at 3 mg/kg,po by LC-MS/MS analysis; format: ADME, organism-based, Macaca fascicularis; conditions: in vivo
# [31] = Tmax in male minipig at 30 mg/kg,po by LC-MS/MS analysis; format: ADME, organism-based, Sus scrofa domesticus; conditions: pig, in vivo
# [32] = Half life in female minipig at 30 mg/kg,po by LC-MS/MS analysis; format: ADME, organism-based, Sus scrofa domesticus; conditions: pig, in vivo
# [33] = AUClast in cynomolgus monkey at 2 mg/kg,iv by LC-MS/MS analysis; format: ADME, organism-based, Macaca fascicularis; design: dose 2 mg/kg, route iv; conditions: in vivo
# [34] = Tmax in male cynomolgus monkey at 10 mg/kg,po by LC-MS/MS analysis; format: ADME, organism-based, Macaca fascicularis; conditions: in vivo
# [35] = Tmax in female cynomolgus monkey at 30 mg/kg,po by LC-MS/MS analysis; format: ADME, organism-based, Macaca fascicularis; conditions: in vivo
# [36] = Half life in female cynomolgus monkey at 10 mg/kg,po by LC-MS/MS analysis; format: ADME, organism-based, Macaca fascicularis; conditions: in vivo
# [37] = AUClast in female Wistar Han rat at 10 mg/kg,po by LC-MS/MS analysis; format: ADME, organism-based; design: dose 10 mg/kg, route po; conditions: in vivo
# [38] = Ratio of AUC (0 to infinity) in liver to plasma of mouse at 3 mg/kg,po; format: ADME, organism-based; conditions: read-out: Ratio AUC
# [39] = Half life in male minipig at 3 mg/kg,po by LC-MS/MS analysis; format: ADME, organism-based, Sus scrofa domesticus; conditions: pig, in vivo
# [40] = Toxicity in rat assessed as NOAEL administrated upto 28 days; conditions: in vivo, time < 28 day
# [41] = Oral bioavailability in male cynomolgus monkey at 10 mg/kg by LC-MS/MS analysis; format: ADME, organism-based, Macaca fascicularis; conditions: in vivo
# [42] = Toxicity in minipig assessed as NOAEL administrated upto 28 days; design: species or system Sus scrofa domesticus; conditions: pig, in vivo; time < 28 day
# [43] = Oral bioavailability in female minipig at 3 mg/kg by LC-MS/MS analysis; format: ADME, organism-based, Sus scrofa domesticus; conditions: pig, in vivo
# [44] = Oral bioavailability in male minipig at 10 mg/kg by LC-MS/MS analysis; format: ADME, organism-based, Sus scrofa domesticus; conditions: pig, in vivo
# [45] = Cmax in male cynomolgus monkey at 10 mg/kg,po by LC-MS/MS analysis; format: ADME, organism-based, Macaca fascicularis; design: dose 10 mg/kg, route po; conditions: in vivo
# [46] = Oral bioavailability in male minipig at 3 mg/kg by LC-MS/MS analysis; format: ADME, organism-based, Sus scrofa domesticus; conditions: pig, in vivo
# Cytochrome P450 2D6 = Cytochrome P450 2D6 (Homo sapiens, UniProt P10635); experiment: Inhibition of CYP2D6 (unknown origin); format: ADME
# [47] = AUClast in female Wistar Han rat at 3 mg/kg,po by LC-MS/MS analysis; format: ADME, organism-based; design: dose 3 mg/kg, route po; conditions: in vivo
# Cytochrome P450 2C19 = Cytochrome P450 2C19 (Homo sapiens, UniProt P33261); experiment: Inhibition of CYP2C19 (unknown origin); format: ADME
# [48] = AUC (0-infinity) in rat plasma at 3 mg/kg,po; format: ADME, organism-based; design: dose 3 mg/kg, route po; conditions: plasma
# [49] = AUClast in male Wistar Han rat at 10 mg/kg,po by LC-MS/MS analysis; format: ADME, organism-based; design: dose 10 mg/kg, route po; conditions: in vivo
# [50] = AUClast in male minipig at 30 mg/kg,po by LC-MS/MS analysis; format: ADME, organism-based, Sus scrofa domesticus; design: dose 30 mg/kg, route po; conditions: pig, in vivo
# [51] = Oral bioavailability in female Wistar Han rat at 10 mg/kg by LC-MS/MS analysis; format: ADME, organism-based; conditions: in vivo
# [52] = Half life in female Wistar Han rat at 3 mg/kg,po by LC-MS/MS analysis; format: ADME, organism-based; conditions: in vivo
# [53] = Volume of distribution at steady state in mouse plasma at 1 mg/kg,iv; format: ADME, organism-based; conditions: read-out: Vdss
# [54] = Half life in cynomolgus monkey at 2 mg/kg,iv by LC-MS/MS analysis; format: ADME, organism-based, Macaca fascicularis; conditions: in vivo
# [55] = Oral bioavailability in male Wistar Han rat at 3 mg/kg by LC-MS/MS analysis; format: ADME, organism-based; conditions: in vivo
# Chain of Cytochrome P450 3A4 (P08684 whole entry): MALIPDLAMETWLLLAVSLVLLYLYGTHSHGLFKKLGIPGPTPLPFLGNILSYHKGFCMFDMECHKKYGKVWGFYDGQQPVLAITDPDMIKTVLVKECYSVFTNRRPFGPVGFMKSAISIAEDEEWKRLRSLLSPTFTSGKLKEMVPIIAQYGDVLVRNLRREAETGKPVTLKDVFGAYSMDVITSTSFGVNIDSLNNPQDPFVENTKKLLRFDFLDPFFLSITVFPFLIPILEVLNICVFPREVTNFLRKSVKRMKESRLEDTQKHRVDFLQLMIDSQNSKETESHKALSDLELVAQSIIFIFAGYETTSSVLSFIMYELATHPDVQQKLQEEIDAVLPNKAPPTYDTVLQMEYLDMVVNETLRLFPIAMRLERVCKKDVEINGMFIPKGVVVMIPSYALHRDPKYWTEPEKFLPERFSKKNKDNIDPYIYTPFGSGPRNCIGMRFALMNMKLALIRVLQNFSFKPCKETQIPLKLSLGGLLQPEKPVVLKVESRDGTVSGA
# Chain of Cytochrome P450 2D6 (P10635 whole entry): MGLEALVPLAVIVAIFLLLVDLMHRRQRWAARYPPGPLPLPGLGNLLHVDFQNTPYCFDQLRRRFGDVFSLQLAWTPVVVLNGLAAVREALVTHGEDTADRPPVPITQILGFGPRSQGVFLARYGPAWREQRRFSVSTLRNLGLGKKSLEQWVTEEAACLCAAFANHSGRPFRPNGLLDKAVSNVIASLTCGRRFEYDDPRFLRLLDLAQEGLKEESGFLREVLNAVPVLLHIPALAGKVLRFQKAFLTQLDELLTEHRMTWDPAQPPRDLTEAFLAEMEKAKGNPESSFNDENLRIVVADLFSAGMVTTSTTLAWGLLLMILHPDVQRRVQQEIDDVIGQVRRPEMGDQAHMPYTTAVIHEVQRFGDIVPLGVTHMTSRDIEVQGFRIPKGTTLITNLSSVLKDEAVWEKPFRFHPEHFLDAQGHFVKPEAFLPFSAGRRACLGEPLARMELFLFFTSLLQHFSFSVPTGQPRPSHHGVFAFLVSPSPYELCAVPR
# Chain of Cytochrome P450 2C19 (P33261 whole entry): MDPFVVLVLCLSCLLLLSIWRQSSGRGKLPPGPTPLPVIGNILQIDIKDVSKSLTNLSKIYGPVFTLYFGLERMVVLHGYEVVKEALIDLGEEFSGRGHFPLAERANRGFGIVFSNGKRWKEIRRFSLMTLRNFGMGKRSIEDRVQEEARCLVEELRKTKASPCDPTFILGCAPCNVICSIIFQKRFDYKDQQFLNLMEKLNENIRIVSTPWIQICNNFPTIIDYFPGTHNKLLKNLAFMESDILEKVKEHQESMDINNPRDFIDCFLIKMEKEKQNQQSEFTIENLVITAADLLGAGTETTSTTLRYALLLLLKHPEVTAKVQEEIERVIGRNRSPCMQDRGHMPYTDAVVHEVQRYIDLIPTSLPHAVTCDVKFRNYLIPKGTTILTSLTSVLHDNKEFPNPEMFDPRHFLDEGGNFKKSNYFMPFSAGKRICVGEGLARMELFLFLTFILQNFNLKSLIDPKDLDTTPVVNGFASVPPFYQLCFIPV
compound,measurement,setting,value
CCOC(=O)C1=C(CN2CCN3C(=O)N(CC(C)(C)C(=O)O)C[C@@H]3C2)NC(c2nccs2)=N[C@H]1c1cccc(F)c1C [LINVENCORVIR],Cmax,[1],100 ng/mL
same,Cmax,[2],64 ng/mL
same,AUC(0-t),[3],280 ng·h/mL
same,Cmax,[4],512 ng/mL
same,clearance,[5],23.6 mL/min/kg
same,Tmax,[6],0.5 h
same,bioavailability,[7],25.8%
same,AUC(0-inf),[8],8850 ng·h/mL
same,IC50,Cytochrome P450 3A4,> 50 µM
same,Vd,[9],1.34 L/kg
same,Cmax,[10],80.4 ng/mL
same,half-life,[11],6.12 h
same,Tmax,[12],1 h
same,bioavailability,[13],20.6%
same,clearance,[14],20 mL/min/kg
same,bioavailability,[15],18.2%
same,bioavailability,[16],14.5%
same,Cmax,[17],2870 ng/mL
same,AUC(0-t),[18],768 ng·h/mL
same,Tmax,[19],0.25 h
same,AUC(0-t),[20],1120 ng·h/mL
same,Cmax,[21],46 ng/mL
same,bioavailability,[22],12.4%
same,Tmax,[23],0.5 h
same,half-life,[24],6.64 h
same,AUC,[25],837 ng·h/mL
same,Cmax,[26],70.2 ng/mL
same,bioavailability,[27],10.3%
same,CLhep predicted at 2 µM,[28],5.6 mL/min/kg
same,bioavailability,[29],14%
same,Tmax,[30],0.25 h
same,Tmax,[31],2 h
same,half-life,[32],8.26 h
same,AUC(0-t),[33],1490 ng·h/mL
same,Tmax,[34],2 h
same,Tmax,[35],2 h
same,half-life,[36],8.13 h
same,AUC(0-t),[37],1970 ng·h/mL
same,Kp,[38],32
same,half-life,[39],9.69 h
same,NOAEL at 672 h,[40],250 mg/kg
same,bioavailability,[41],15.8%
same,NOAEL at 672 h,[42],350 mg/kg
same,bioavailability,[43],10.6%
same,bioavailability,[44],18.6%
same,Cmax,[45],298 ng/mL
same,bioavailability,[46],12.6%
same,IC50,Cytochrome P450 2D6,> 50 µM
same,AUC(0-t),[47],220 ng·h/mL
same,IC50,Cytochrome P450 2C19,> 50 µM
same,AUC(0-inf),[48],70 ng·h/mL
same,AUC(0-t),[49],1440 ng·h/mL
same,AUC(0-t),[50],4150 ng·h/mL
same,bioavailability,[51],36.4%
same,half-life,[52],2.15 h
same,Vd,[53],1 L/kg
same,half-life,[54],1.77 h
same,bioavailability,[55],13.5%

# Reference: ChEMBL document CHEMBL5316357, “Discovery of Linvencorvir (RG7907), a Hepatitis B Virus Core Protein Allosteric Modulator, for the Treatment of Chronic HBV Infection” (J Med Chem, 2023)
